SMILES strings stand for the structures.

The first data set concerns the target T1, hormone-sensitive lipase (HSL) (Rattus norvegicus, UniProt P15304).
T1 construct: Isolated rat lipocytes were obtained from epididymal fatty tissue of nontreated male rats; from tissue; host or cells: rat epididymal fat tissue lipocytes (Wistar), partially purified
T1 sequence (P15304 1-768 isoform P15304-2): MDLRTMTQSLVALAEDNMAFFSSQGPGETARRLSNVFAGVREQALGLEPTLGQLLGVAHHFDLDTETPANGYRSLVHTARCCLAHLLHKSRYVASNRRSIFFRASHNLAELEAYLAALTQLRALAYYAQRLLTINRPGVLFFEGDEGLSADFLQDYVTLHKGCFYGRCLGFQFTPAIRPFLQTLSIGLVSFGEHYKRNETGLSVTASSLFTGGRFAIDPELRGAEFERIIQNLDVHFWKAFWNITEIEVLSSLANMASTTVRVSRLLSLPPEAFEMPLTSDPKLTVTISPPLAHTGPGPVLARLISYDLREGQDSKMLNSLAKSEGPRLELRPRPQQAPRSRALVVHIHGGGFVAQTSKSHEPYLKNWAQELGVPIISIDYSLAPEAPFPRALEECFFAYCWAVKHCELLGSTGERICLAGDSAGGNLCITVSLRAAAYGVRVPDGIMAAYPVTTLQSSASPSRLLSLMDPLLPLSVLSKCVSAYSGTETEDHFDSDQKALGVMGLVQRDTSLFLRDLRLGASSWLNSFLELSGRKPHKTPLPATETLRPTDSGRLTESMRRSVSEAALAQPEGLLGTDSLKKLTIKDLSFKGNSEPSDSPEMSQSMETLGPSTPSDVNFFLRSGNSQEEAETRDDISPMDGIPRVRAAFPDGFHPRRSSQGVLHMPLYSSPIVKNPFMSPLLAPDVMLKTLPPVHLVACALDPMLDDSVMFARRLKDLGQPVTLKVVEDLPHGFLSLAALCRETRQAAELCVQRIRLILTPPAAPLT
The data set can be described thus: Inhibition of partially purified hormone-sensitive lipase (HSL) from rats, [3H]trioleoylglycerol substrate.
Settings: not given
Format: biochemical. On the procedure:
Isolated rat lipocytes were obtained from epididymal fatty tissue of nontreated male rats (Wistar, 220-250 g) by collagenase treatment according to published procedures (e.g., S. Nilsson et al., Anal. Biochem. 158:399-407 (1986); G. Fredrikson et al., J. Biol. Chem. 256, 6311-6320 (1981); H. Tornquist et al., J. Biol. Chem. 251:813-819 (1976)). The lipocytes from 10 rats were washed three times by flotation with 50 ml of homogenization buffer in each case ([…] TRIS/HCl, pH 7.4, 0.25 M sucrose, 1 mM EDTA, 1 mM DTT, 10 μg/ml of leupeptin, 10 μg/ml of antipain, 20 μg/ml of pepstatin) and finally taken up in 10 ml of homogenization buffer. The lipocytes were homogenized in a Teflon-in-glass homogenizer (Braun-Melsungen) by means of 10 strokes at 1500 rpm and 15° C. The homogenisate was centrifuged (Sorvall SM24 tubes, 5000 rpm, 10 min, 4° C.). The lower layer between the overlying fatty layer and the pellet was removed and the centrifugation was repeated. The lower layer resulting from this was centrifuged again (Sorvall SM24 tubes, 20000 rpm, 45 min, 4° C.). The lower layer was removed and treated with 1 g of heparin-sepharose (Pharmacia-Biotech, CL-6B, washed 5× with 25 mM Tris/HCl, pH 7.4, 150 mM NaCl). After incubation for 60 min at 4° C. (shaken at intervals of 15 min), the batch was centrifuged (Sorvall SM24 tubes, 3000 rpm, 10 min, 4° C.). The supernatant was brought to pH 5.2 by addition of acetic acid and incubated at 4° C. for 30 min. The precipitates were collected by centrifugation (Sorvall SS34, 12000 rpm, 10 min, 4° C.) and suspended in 2.5 ml of 20 mM Tris/HCl, pH 7.0, 1 mM EDTA, 65 mM NaCl, 13% of sucrose, 1 mM DTT, 10 μg/ml of leupeptin/pepstatin/antipain. The suspension was dialyzed overnight at 4° C. against 25 mM Tris/HCl, pH 7.4, 50% of glycerol, 1 mM DTT, 10 μg/ml of leupeptin, pepstatin, and antipain, and then applied to a hydroxylapetite column (0.1 g per 1 ml of suspension, equilibrated with 10 mM potassium phosphate, pH 7.0, 30% of glycerol, 1 mM DTT). The column was washed with four volumes of equilibration buffer at a flow rate of 20 to 30 ml/h. The HSL was eluted with a volume of equilibration buffer which contained 0.5 M potassium phosphate, then dialyzed (see above), and was concentrated 5 to 10 times by ultrafiltration (Amicon Diaflo PM 10 Filter) at 4° C. The partially purified HSL could be stored at −70° C. for 4 to 6 weeks.
For the preparation of the substrates, 25-50 μCi of [^3H]trioleoylglycerol (in toluene), 6.8 μMol of unlabeled trioleoylglycerol and 0.6 mg of phospholipid (phosphatidylcholine/phosphatidylinositol 3:1 w/v) were mixed, dried by means of N2 and then taken up in 2 ml of 0.1 M KPi (pH 7.0) by ultrasonic treatment (Branson 250, microtips, setting 1-2, 2×1 min at a 1 min interval). After addition of 1 ml of KPi and fresh ultrasonic treatment (4×30 sec on ice at 30 sec intervals), 1 ml of 20% BSA (bovine serum albumin) (in KPi) was added (final concentration of trioleoylglycerol at 1.7 mM). For the reaction, 100 μl of substrate solution were pipetted into 100 μl of HSL solution (HSL prepared as above, diluted in 20 mM KPi, pH 7.0, 1 mM EDTA, 1 mM DTT, 0.02% BSA, 20 μg/ml of pepstatin, 10 μg/ml of leupeptin) and incubated at 37° C. for 30 min. After addition of 3.25 ml of methanol/chloroform/heptane (10:9:7) and of 1.05 ml 0.1 M K2CO3, 0.1 M boric acid (pH 10.5), the batch was mixed well and finally centrifuged (800×g, 20 min). After phase separation, one equivalent of the upper phase (1 ml) was removed and the radioactivity was determined by liquid scintillation measurement.
Substances were generally tested in four independent batches. The inhibition of the enzymatic activity of the HSL by a test substance was determined by the comparison with a noninhibited control reaction. The calculation of the IC50 value was carried out by means of an inhibitory curve using at least 10 concentrations of the test substance. […]
Turning to `CCCCCCCCCCCCCCCCOP1(=O)OCC2COC(=O)C2=C(C)O1` (stereo not shown) [Cyclipostin P], the IC50 was 30 nM.

`CC1=C2C(=O)OCC2COP(=O)(OCCCCCCCCCCCCCC(C)C)O1` (stereo not shown) [Cyclipostin P2] yielded an IC50 of 40 nM.

The data set is the same for the next values; noted with them: trioleoylglycerol as substrate; read-out: IC50, inhibition of hormone-sensitive lipase from rats.
For `CCCCC(O)CCCCCCCCCCCOP1(=O)OCC2COC(=O)C2=C(C)O1` (stereo not shown) [Cyclipostin A], the IC50 amounted to 20 nM.

As for `CCCCCCCCCCCCCCCCOP1(=O)OCC2COC(=O)C2=C(CCC)O1` (stereo not shown) [Cyclipostin T], the IC50 stood at 200 nM.

For `CCCCCCCCCCCCCCCOP1(=O)OCC2COC(=O)C2=C(C)O1` (stereo not shown) [Cyclipostin R], the IC50 amounted to 10 nM.

Regarding `CC1=C2C(=O)OCC2COP(=O)(OCCCCCCCCCCCCC(C)C)O1` (stereo not shown) [Cyclipostin R2], the IC50 was 220 nM.

With `CCCC1=C2C(=O)OCC2COP(=O)(OCCCCCCCCCCCCCC(C)C)O1` (stereo not shown) [Cyclipostin T2], the IC50 came out at 60 nM.

With `CCCCCCCCCCCCCCCCOP1(=O)OCC2COC(=O)C2=C(CC)O1` (stereo not shown) [Cyclipostin S], the IC50 was determined as 20 nM.

As for `CCCCCCCCCCCCCCOP1(=O)OCC2COC(=O)C2=C(C)O1` (stereo not shown) [Cyclipostin N], the IC50 was found to be 450 nM.

The target in a further data set is T2, HSL from rats (Rattus norvegicus, UniProt P15304).
T2 construct: from tissue; host or cells: rat
T2 sequence (P15304 1-768 isoform P15304-2): T1 sequence (P15304 1-768 isoform P15304-2)
Nature of the data set: Inhibition of HSL from rats with NBD as substrate.
Settings: not given
Format: biochemical.
Molecule `CCCCCCCCCCCCCCCCOP1(=O)OCC2COC(=O)C2=C(C)O1` (stereo not shown) [Cyclipostin P] returned an IC50 of 4 to 10 nM.

For the molecule `CC1=C2C(=O)OCC2COP(=O)(OCCCCCCCCCCCCCC(C)C)O1` (stereo not shown) [Cyclipostin P2], the IC50 lay in the range of 4 to 10 nM.

Staying with this data set, now noted: NBD (4-chloro-7-nitrobenzo-2-oxa-1,3-diazole) as substrate; read-out: concentrations inhibiting HSL from rats.
Take `CCCCC(O)CCCCCCCCCCCOP1(=O)OCC2COC(=O)C2=C(C)O1` (stereo not shown) [Cyclipostin A]: the IC50 lay within 4 to 10 nM.

Consider `CCCCCCCCCCCCCCCOP1(=O)OCC2COC(=O)C2=C(C)O1` (stereo not shown) [Cyclipostin R], for which the IC50 fell in the range of 4 to 10 nM.

The subject of the next data set is lipolysis in rat adipocytes. Nature of the data set: Inhibition of lipolysis in rat adipocytes. Format: cell-based. The note with it: Adipocyte.
`CCCCC(O)CCCCCCCCCCCOP1(=O)OCC2COC(=O)C2=C(C)O1` (stereo not shown) [Cyclipostin A] yielded an IC50 of approximately 200 nM.

For `CCCCCCCCCCCCCCCCOP1(=O)OCC2COC(=O)C2=C(C)O1` (stereo not shown) [Cyclipostin P], the IC50 was approximately 200 nM.

The molecule `CCCCCCCCCCCCCCCOP1(=O)OCC2COC(=O)C2=C(C)O1` (stereo not shown) [Cyclipostin R] gave an IC50 of approximately 200 nM.

`CC1=C2C(=O)OCC2COP(=O)(OCCCCCCCCCCCCCC(C)C)O1` (stereo not shown) [Cyclipostin P2] yielded an IC50 of approximately 200 nM.

For the next data set, the system named is lipases.
Experiment: not given
The note with it: background statement on the known methyl analogue; cited from earlier work.
With `CO[P@]1(=O)OC[C@H]2COC(=O)C2=C(C)O1` [CGA 134 736], the selective lipase-inhibiting properties entry was “no selective lipase-inhibiting properties”.

Test system in another data set: not listed separately
Nature of the data set: Solubility (characterization of the isolated substance). The note with it: oxygen-containing organic solvents.
Regarding `CCCCC(O)CCCCCCCCCCCOP1(=O)OCC2COC(=O)C2=C(C)O1` (stereo not shown) [Cyclipostin A], the “solubility in oxygen-containing organic solvents” value is recorded as “soluble”.

For the molecule `CCCCCCCCCCCCCCCCOP1(=O)OCC2COC(=O)C2=C(CCC)O1` (stereo not shown) [Cyclipostin T], the “solubility in oxygen-containing organic solvents” value is reported as “soluble”.

`CCCCCCCCCCCCCCCCOP1(=O)OCC2COC(=O)C2=C(C)O1` (stereo not shown) [Cyclipostin P]: the “solubility in oxygen-containing organic solvents” value was “soluble”.

As for `CCCCCCCCCCCCCCCOP1(=O)OCC2COC(=O)C2=C(C)O1` (stereo not shown) [Cyclipostin R], the “solubility in oxygen-containing organic solvents” value is listed as “soluble”.

As to `CC1=C2C(=O)OCC2COP(=O)(OCCCCCCCCCCCCC(C)C)O1` (stereo not shown) [Cyclipostin R2], the “solubility in oxygen-containing organic solvents” value is recorded as “soluble”.

For the molecule `CCCC(O)CCCCCCCCCCCCO[P@]1(=O)OC[C@H]2COC(=O)C2=C(C)O1` (stereo partly shown) [Cyclipostin B], the “solubility in oxygen-containing organic solvents” value is on record as “soluble”.

Regarding `CCCC1=C2C(=O)OCC2COP(=O)(OCCCCCCCCCCCCCC(C)C)O1` (stereo not shown) [Cyclipostin T2], the “solubility in oxygen-containing organic solvents” value is “soluble”.

On to `CCC(=O)CCCCCCCCCCCCCOP1(=O)OC[C@H]2COC(=O)C2=C(C)O1` (stereo partly shown) [Cyclipostin F], for which the “solubility in oxygen-containing organic solvents” value is “soluble”.

As for `CCCCCCCCCCCCCCCCOP1(=O)OCC2COC(=O)C2=C(CC)O1` (stereo not shown) [Cyclipostin S], the “solubility in oxygen-containing organic solvents” value is given as “soluble”.

Turning to `CC1=C2C(=O)OCC2COP(=O)(OCCCCCCCCCCCCCC(C)C)O1` (stereo not shown) [Cyclipostin P2], the “solubility in oxygen-containing organic solvents” value is reported as “soluble”.

`CCCCCCCCCCCCCCOP1(=O)OCC2COC(=O)C2=C(C)O1` (stereo not shown) [Cyclipostin N]: the “solubility in oxygen-containing organic solvents” value is “soluble”.

Staying with this data set, now noted: water and petroleum ether.
Take `CCCCC(O)CCCCCCCCCCCOP1(=O)OCC2COC(=O)C2=C(C)O1` (stereo not shown) [Cyclipostin A]: the “solubility in water and petroleum ether” value is “only slightly soluble”.

`CCCCCCCCCCCCCCCCOP1(=O)OCC2COC(=O)C2=C(CCC)O1` (stereo not shown) [Cyclipostin T]: the “solubility in water and petroleum ether” value was “only slightly soluble”.

As to `CCCCCCCCCCCCCCCCOP1(=O)OCC2COC(=O)C2=C(C)O1` (stereo not shown) [Cyclipostin P], the “solubility in water and petroleum ether” value is recorded as “only slightly soluble”.

Regarding `CCCCCCCCCCCCCCCOP1(=O)OCC2COC(=O)C2=C(C)O1` (stereo not shown) [Cyclipostin R], the “solubility in water and petroleum ether” value is listed as “only slightly soluble”.

As for `CC1=C2C(=O)OCC2COP(=O)(OCCCCCCCCCCCCC(C)C)O1` (stereo not shown) [Cyclipostin R2], the “solubility in water and petroleum ether” value was “only slightly soluble”.

For the molecule `CCCC(O)CCCCCCCCCCCCO[P@]1(=O)OC[C@H]2COC(=O)C2=C(C)O1` (stereo partly shown) [Cyclipostin B], the “solubility in water and petroleum ether” value was “only slightly soluble”.

Regarding `CCCC1=C2C(=O)OCC2COP(=O)(OCCCCCCCCCCCCCC(C)C)O1` (stereo not shown) [Cyclipostin T2], the “solubility in water and petroleum ether” value is recorded as “only slightly soluble”.

As for `CCC(=O)CCCCCCCCCCCCCOP1(=O)OC[C@H]2COC(=O)C2=C(C)O1` (stereo partly shown) [Cyclipostin F], the “solubility in water and petroleum ether” value is reported as “only slightly soluble”.

Turning to `CCCCCCCCCCCCCCCCOP1(=O)OCC2COC(=O)C2=C(CC)O1` (stereo not shown) [Cyclipostin S], the “solubility in water and petroleum ether” value is listed as “only slightly soluble”.

On to `CC1=C2C(=O)OCC2COP(=O)(OCCCCCCCCCCCCCC(C)C)O1` (stereo not shown) [Cyclipostin P2], for which the “solubility in water and petroleum ether” value is “only slightly soluble”.

For the molecule `CCCCCCCCCCCCCCOP1(=O)OCC2COC(=O)C2=C(C)O1` (stereo not shown) [Cyclipostin N], the “solubility in water and petroleum ether” value is “only slightly soluble”.

The values above are taken from patent US6756402B2, “Cyclipostins, process for their preparation and use thereof” (Aventis Pharma Deutschland GmbH, priority 2000, dated 2004).
